{"source": "paper PMC9866339", "about": "“In Silico and In Vitro Study of Janus Kinases Inhibitors from Naphthoquinones” (Molecules, 2023)", "key": {"TF1 cells [1]": {"test_system": "TF1 cells", "assay": "Presto Blue cytotoxicity assay on TF1 cells", "assay_type": "cell-based, human", "conditions": "for Cytotoxicity screening on TF1 cells: 10 μM, Presto Blue assay, result in words; for IC50: Homo sapiens, TF-1, 72 h, read-out: IC50 against TF1 cell viability"}, "HEL cells": {"test_system": "HEL cells", "assay": "Presto Blue cytotoxicity assay on HEL cells", "assay_type": "cell-based, human", "conditions": "for Cytotoxicity screening on HEL cells: 10 μM, result in words; for IC50: Homo sapiens, HEL, 72 h, read-out: IC50 against HEL cell viability"}, "JAK2": {"biological_target": "T1, JAK2 (Homo sapiens, UniProt O60674)", "T1 construct": "purchased Sigma-Aldrich SRP0171", "T1 sequence (O60674 808-1132 limits assumed)": "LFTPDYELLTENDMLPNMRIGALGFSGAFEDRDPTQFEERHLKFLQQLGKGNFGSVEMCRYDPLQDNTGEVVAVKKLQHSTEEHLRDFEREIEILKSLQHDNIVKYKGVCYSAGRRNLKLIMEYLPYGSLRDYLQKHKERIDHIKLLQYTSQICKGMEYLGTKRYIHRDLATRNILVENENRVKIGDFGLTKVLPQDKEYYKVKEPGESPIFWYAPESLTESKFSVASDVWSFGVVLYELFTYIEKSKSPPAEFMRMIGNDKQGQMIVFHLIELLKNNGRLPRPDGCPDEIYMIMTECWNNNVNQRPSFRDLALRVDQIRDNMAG", "assay": "ADP-Glo kinase assay, JAK2", "assay_type": "biochemical", "conditions": "5 μM ATP, read-out: IC50 ± SEM JAK2"}, "JAK3": {"biological_target": "T2, JAK3 (Homo sapiens, UniProt P52333)", "T2 construct": "purchased Sigma-Aldrich SRP0173", "T2 sequence (P52333 781-1124 limits assumed)": "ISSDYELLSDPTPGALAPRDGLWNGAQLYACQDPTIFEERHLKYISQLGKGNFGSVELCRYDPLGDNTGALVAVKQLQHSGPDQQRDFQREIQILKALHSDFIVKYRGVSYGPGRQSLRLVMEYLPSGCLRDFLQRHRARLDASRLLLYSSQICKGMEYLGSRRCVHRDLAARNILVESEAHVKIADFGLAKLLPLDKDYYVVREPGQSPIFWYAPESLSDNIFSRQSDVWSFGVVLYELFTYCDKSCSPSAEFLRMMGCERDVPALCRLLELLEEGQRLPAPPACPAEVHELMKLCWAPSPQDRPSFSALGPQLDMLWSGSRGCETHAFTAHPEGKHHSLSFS", "assay": "ADP-Glo kinase assay, JAK3", "assay_type": "biochemical", "conditions": "5 μM ATP, read-out: IC50 ± SEM JAK3"}, "TF1 cells [2]": {"test_system": "TF1 cells", "conditions": "at IC50, 72 h, dot plot quadrant"}, "TF1 cells [3]": {"test_system": "TF1 cells", "conditions": "at IC50, 72 h, dot plot quadrant", "remark": "listed apart in the source"}, "human keratinocytes": {"test_system": "human keratinocytes", "design": "method as in PMID 28250347, PMID 22845014", "conditions": "result in words; cited from earlier work"}, "HEL cell": {"test_system": "HEL cell", "conditions": "read-out: IC50 HEL cell growth; cited from earlier work"}, "JAK1": {"test_system": "JAK1", "conditions": "read-out: IC50 JAK1; cited from earlier work"}}, "note": "Read-outs that look alike come from different tables or passages of the source.", "data": [{"smiles": "CCC(=O)c1cc2c(o1)C(=O)c1ccccc1C2=O", "note": "[2′-methyl napabucasin]", "values": [{"measurement": "Cytotoxicity screening on TF1 cells", "setting": "TF1 cells [1]", "result": "highly potent cell growth inhibition"}, {"measurement": "IC50", "setting": "TF1 cells [1]", "result": 18.1, "unit": "µM"}, {"measurement": "Cytotoxicity screening on HEL cells", "setting": "HEL cells; Presto Blue assay", "result": "highly potent cell growth inhibition"}, {"measurement": "IC50", "setting": "HEL cells", "result": 6.65, "unit": "µM"}, {"measurement": "IC50", "setting": "JAK2", "result": "0.0111 ± 0.00013", "unit": "µM"}, {"measurement": "IC50", "setting": "JAK3", "result": "0.0102 ± 0.00066", "unit": "µM"}, {"measurement": "Dead cells, annexin V", "setting": "TF1 cells [2]", "result": 1.10, "unit": "%"}, {"measurement": "Early Apop. cells, annexin V", "setting": "TF1 cells [2]", "result": 25.42, "unit": "%"}, {"measurement": "Late Apop./Dead cells, annexin V", "setting": "TF1 cells [2]", "result": 51.16, "unit": "%"}, {"measurement": "Live cells, annexin V", "setting": "TF1 cells [2]", "result": 22.32, "unit": "%"}, {"measurement": "Apoptotic cells, caspase 3/7", "setting": "TF1 cells [3]", "result": 13.50, "unit": "%"}, {"measurement": "Apoptotic/Dead cells, caspase 3/7", "setting": "TF1 cells [3]", "result": 22.35, "unit": "%"}, {"measurement": "Dead cells, caspase 3/7", "setting": "TF1 cells [3]", "result": 0.70, "unit": "%"}, {"measurement": "Live cells, caspase 3/7", "setting": "TF1 cells [3]", "result": 63.45, "unit": "%"}, {"measurement": "Cytotoxicity against human keratinocytes", "setting": "human keratinocytes", "result": "potent cytotoxicity"}]}, {"smiles": "N#Cc1ccc(C2C3=C(CCCC3=O)OC3=C2C(=O)c2ccccc2C3=O)cc1", "note": "(stereo not shown) [CM363]", "values": [{"measurement": "IC50", "setting": "HEL cell", "result": 1.3, "unit": "µM"}]}, {"smiles": "O=C1C=CC(=O)c2c(O)cccc21", "note": "[Juglone, juglone]", "values": [{"measurement": "IC50", "setting": "HEL cells; Presto Blue assay, mean ± SEM", "result": "8.67 ± 0.17", "unit": "µM"}]}, {"smiles": "O=C1C=C(O)C(=O)c2ccccc21", "note": "[Lawsone, 2-hydroxy-1,4-naphthoquinone]", "values": [{"measurement": "Cytotoxicity screening on TF1 cells", "setting": "TF1 cells [1]", "result": "inhibited the growth of both cell types poorly"}, {"measurement": "Cytotoxicity screening on HEL cells", "setting": "HEL cells; Presto Blue assay", "result": "inhibited the growth of both cell types poorly"}]}, {"smiles": "CC1=CC(=O)c2ccccc2C1=O", "note": "[Menadione, menadione]", "values": [{"measurement": "Cytotoxicity screening on HEL cells", "setting": "HEL cells; Presto Blue assay", "result": "high cytotoxicity"}, {"measurement": "IC50", "setting": "HEL cells; Presto Blue assay, mean ± SEM", "result": "7.99 ± 1.22", "unit": "µM"}]}, {"smiles": "CC(=O)c1cc2c(o1)C(=O)c1ccccc1C2=O", "note": "[Napabucasin, napabucasin]", "values": [{"measurement": "Cytotoxicity screening on TF1 cells", "setting": "TF1 cells [1]", "result": "highly potent cell growth inhibition"}, {"measurement": "IC50", "setting": "TF1 cells [1]", "result": 9.57, "unit": "µM"}, {"measurement": "Cytotoxicity screening on HEL cells", "setting": "HEL cells; Presto Blue assay", "result": "highly potent cell growth inhibition"}, {"measurement": "IC50", "setting": "HEL cells", "result": 3.31, "unit": "µM"}, {"measurement": "IC50", "setting": "JAK2", "result": "0.0126 ± 0.00212", "unit": "µM"}, {"measurement": "IC50", "setting": "JAK3", "result": "0.0148 ± 0.00237", "unit": "µM"}, {"measurement": "Dead cells, annexin V", "setting": "TF1 cells [2]", "result": 3.50, "unit": "%"}, {"measurement": "Early Apop. cells, annexin V", "setting": "TF1 cells [2]", "result": 29.80, "unit": "%"}, {"measurement": "Late Apop./Dead cells, annexin V", "setting": "TF1 cells [2]", "result": 39.24, "unit": "%"}, {"measurement": "Apoptotic cells, caspase 3/7", "setting": "TF1 cells [3]", "result": 25.85, "unit": "%"}, {"measurement": "Apoptotic/Dead cells, caspase 3/7", "setting": "TF1 cells [3]", "result": 18.10, "unit": "%"}, {"measurement": "Dead cells, caspase 3/7", "setting": "TF1 cells [3]", "result": 0.30, "unit": "%"}, {"measurement": "Live cells, caspase 3/7", "setting": "TF1 cells [3]", "result": 55.75, "unit": "%"}]}, {"smiles": "N#CC[C@H](C1CCCC1)n1cc(-c2ncnc3[nH]ccc23)cn1", "note": "[Ruxolitinib, ruxolitinib, reference compound]", "values": [{"measurement": "IC50", "setting": "TF1 cells [1]", "result": "12.2 ± 0.58", "unit": "µM"}, {"measurement": "IC50", "setting": "HEL cells", "result": "26.04 ± 0.26", "unit": "µM"}, {"measurement": "IC50", "setting": "JAK1", "result": "[…]"}]}]}
